Experimental data from patent US7846474B2, “Use of bisphosphonates for the treatment of osteogenesis imperfecta” (Gador S.A., priority 1999, dated 2010).

What was measured:
growth of cartilage = conditions: in vivo; cited from earlier work
[1] = test system: children with Osteogenesis Imperfecta; test: Continuous disodium pamidronate treatment of children with Osteogenesis Imperfecta (absorptiometry, biochemical markers, quantitative computerized tomography of the tibia); type: in vivo, human
Experimental: The doses were adjusted to the patient's condition with a mean of 3.5 mg/Kg of body weight/day by oral administration, or 20 mg per dose, every 3-6 months, by intravenous administration in one of the cases.
The latter can be attributed to the scarce development of inertia due to the internal osseous lack of resorption in the diaphysis. In FIG. 2 it can be observed that in children with normal development, there exists a range of cortical mineralization which contributes to the diaphysial stability (resistance to deformation). This range is of approximately 1020-1100 mg/cm3.
The administration period of bisphosphonates was 2-4.5 years, indicating the existence of a wide interindividual variability in order to obtain the “mineralizing” effect and the inconvenience of adopting fixed periods of treatments.

Compound	effect on the growth of cartilage (growth of cartilage)	cortical mineralization range reached (cortical mineral density of the tibia, vDMO) ([1]; FIG. 2, range of normal children that contributes to diaphysial stability, reached by treated OI children)	osseous metabolic turnover (biochemical markers of osseous resorption and formation) ([1]; OI type III/IV children, continuous scheme 2.5-4 years, mean 3.5 mg/Kg/day oral or 20 mg i.v. every 3-6 months, urinary hydroxyproline/creatinine, serum alkaline phosphatase, osteocalcine)	total apparent mineral density of the lumbar vertebrae and the neck of the femur ([1]; osseous absorptiometries, continuous scheme 2.5-4 years)
CN(C)CCC(O)(P(=O)(O)O)P(=O)(O)O [olpadronate]	not to affect the growth of cartilage			
NCCC(O)(P(=O)(O)O)P(=O)(O)O [pamidronate, disodium pamidronate]		1020-1100 mg/cm3	reduction of the osseous metabolic turnover	progressive improvement
